# Measured values: patent publication US20110100079A1, “METHOD FOR IMPARTING STRESS TOLERANCE TO PLANT” (priority 2007, published 2011)
# Columns and labels:
# Type in all cases: in vivo
# [1] = system: “Momotaro” tomato; assay: Standard test: standard extent of imparting plant salt stress tolerance; details: 100 ppm sprayed onto leaves 10 ml/specimen, NaCl 3510 ppm in tap water, fresh weight after 2 weeks vs salt-stressed untreated control plot 1
# Experimental: Standard Test (I) Plant Preparation A 50-cell tray is filled with potting soil (fertilizer components: N:P:K=0.4:1.9:0.6 (g)/kg potting soil); and seeds of a “Momotaro” tomato (Takii Co., Ltd.) are sowed, thinly covered with potting soil, and sufficiently irrigated to allow the seeds to sprout. When the leaves in the 2-leaf stage are fully unfolded, the soil on the tomato roots is washed away with running water, and a test is performed. For the potting soil, Kureha gardening soil manufactured by Kureha Corporation may be used. (II) Test Condition Setting The environmental conditions are controlled such that the temperature is 23° C., the relative humidity is 50%, the illuminance is 5000 Lux, and the daily light-dark cycle includes a 16-hour light period and an 8-hour dark period. Such environmental conditions can be obtained by, for example, controlling the temperature in a room or a climate chamber where the temperature and the relative humidity can be controlled, and controlling illuminance by a fluorescent light or the like. […] (III) Treatment with Plant Stress Tolerance Imparting Composition […] A known surfactant or a like material that barely affects the plant may be used in the preparation of an aqueous dispersion. Test plot: An aqueous solution or an aqueous dispersion of a test compound (sugar derivative-type surfactant) (concentration: 100 ppm) is sprayed onto the leaves in an amount of 10 ml per tomato specimen. […] NaCl is added to a solution culture medium (creating a salt stress), but no test compound (plant stress tolerance imparting composition) is given to the tomato. Control plot 2: No NaCl is added to a solution culture medium (creating no salt stress), and no test compound (plant stress tolerance imparting composition) is given to the tomato. (IV) Calculation of Standard Extent of Imparting Plant Salt Stress Tolerance (%) […] The plant stress level (standard plant salt stress level) attained in the above-described standard test is about 130%. In this regard, the standard plant salt stress level can be calculated according to Formula (ii)′ below.
# [2] = system: “Momotaro” tomato; assay: Example 2 temperature stress tolerance imparting test (tomato); details: 32° C., leaf, 100 ppm, 2 weeks
# Experimental: Other cultivation conditions were the same as the conditions of the temperature stress test. […] (2) Solution culture medium: […] Method of Temperature Stress Tolerance Imparting Test The temperature in a climatic chamber was controlled so as to be 10, 15, or 32° C. The environmental conditions were controlled so as to have an illuminance by a fluorescent light of 5000 Lux and a daily light-dark cycle of a 16-hour light period and a 8-hour dark period. In this test, a temperature of 23° C. at which the optimum growth was observed was regarded as a reference temperature (temperature stress-free test condition), and a stress was imposed by applying a temperature higher or lower than the reference temperature. A tomato as prepared above was planted in a 250 ml polyethylene bottle filled with the solution culture medium (½ Otsuka A formulation). A treatment solution as presented in Table 1 was sprayed onto the leaves or applied to the underground portion. […] Ten specimens were prepared for each of the test plot and the control plots, and a plant stress level and an extent of imparting plant stress tolerance were calculated according to Formula (ii) and (iii) above using as a fresh plant body weight the average of the fresh plant body weights of each specimen 2 weeks after the beginning of the test.
# [3] = system: “Momotaro” tomato; assay: Example 3 drying stress tolerance imparting test (tomato); details: pF 2.3, leaf, 100 ppm once a week, 3 weeks
# Experimental: Other cultivation conditions were as with the conditions of the drying stress test. Drying stress conditions: soil pF value: 2.3, 2.5, or 2.9, cultivation temperature: 23° C., relative humidity: 50%, illuminance: 5000 Lux (fluorescent light), light/dark cycle: 16 hours/8 hours (2) Cultivation period: 3 weeks (3) Soil: Kureha gardening soil manufactured by Kureha Corporation (fertilizer components: N:P:K=0.4:1.9:0.6 g/kg soil) (4) Plant preparation: A 50-cell tray was filled with Kureha gardening soil manufactured by Kureha Corporation (fertilizer components: N:P:K=0.4:1.9:0.6 g/kg soil), and seeds of a “Momotaro” tomato were sowed, thinly covered with Kureha gardening soil, and sufficiently watered to allow the seeds to sprout. When the leaves in the 2-leaf stage fully unfolded, the soil on the tomato roots was carefully washed away with running water, and a test was performed. (5) The chemicals used and the amount of a treatment solution applied were as in Example 1. (6) Amount of treatment solution applied: 10 ml/specimen for leaf spraying, 50 ml/specimen for fertigation Method of Drying Stress Tolerance Imparting Test Five tomato specimens as prepared above were planted in a 60-cm planter placed on a plant culture rack in an air-conditioned room. […] From immediately after planting the tomatoes, a treatment solution of Table 1 was sprayed onto the leaves or applied to the underground portions once a week. […] Five specimens (per planter) were prepared for each of the test plot and the control plots, plant bodies were collected 3 weeks after the beginning of the test such that the roots were not cut, the soil was washed away with running water, the fresh plant body-weights were measured, and a plant stress level and an extent of imparting plant stress tolerance were calculated according to Formula (ii) and (iii) above using the average of the weights.
# [4] = system: “Momotaro” tomato; assay: Example 4 salt stress tolerance imparting test (tomato, tap water + NaCl); details: tap water + NaCl 3510 ppm, leaf, 100 ppm, 2 weeks
# Excerpt: NaCl concentration 3510 ppm (water potential by NaCl: […]) (4) Cultivation period: two weeks (5) Plant preparation: A 50-cell tray was filled with Kureha gardening soil manufactured by Kureha Corporation (fertilizer components: N:P:K=0.4:1.9:0.6 g/kg soil), and seeds of a “Momotaro” tomato were sowed, thinly covered with Kureha gardening soil, and sufficiently irrigated to allow the seeds to sprout. When the leaves in the 2-leaf stage fully unfolded, the soil on the tomato roots was carefully washed away with running water, and a test was performed. (6) The chemicals used and the concentration of a treatment solution were as in Example 1 (7) Amount of application: 10 ml/specimen for leaf spraying, 50 ml/specimen for fertigation Method of Salt Stress Tolerance Imparting Test […]
# [5] = system: Potato Variety: Toyoshiro; assay: Example 5 drying stress tolerance imparting test (potato variety Toyoshiro); details: pF 2.3, leaf, 100 ppm once a week, 3 weeks
# Experimental: Other cultivation conditions were the same as the conditions of the drying stress test. Drying stress conditions: soil pF value: 2.3, 2.5, or 2.9, cultivation temperature: 23° C., relative humidity: 50%, illuminance: 5000 Lux (fluorescent light), light/dark cycle: 16 hours/8 hours (2) Cultivation Period: 3 weeks (3) Soil: Kureha gardening soil manufactured by Kureha Corporation (fertilizer components: N:P:K=0.4:1.9:0.6 g/kg soil) (4) The chemicals used and the amount of a treatment solution applied were the same as in Example 3. Method of Drying Stress Tolerance Imparting Test A planter (60 cm) was filled with Kureha gardening soil manufactured by Kureha Corporation (fertilizer components: N:P:K=0.4:1.9:0.6 g/kg soil) in a glass greenhouse, tubers of a “Thyoshiro” potato were cut in half: and 5 pieces thereof were planted in the planter, thinly covered with Kureha gardening soil, and sufficiently watered to allow the tubers to sprout. When the leaves in the 3-leaf stage fully unfolded, the Solarium tuberosu was relocated on a plant culture rack in an air-conditioned room, and a test was initiated. […] From immediately after the beginning of the test, a treatment solution of Table 1 was sprayed onto the leaves or applied to the underground portions once a week. […] Five specimens (per planter) were prepared for each of the test plot and the control plots, plant bodies were collected 3 weeks after the beginning of the test such that the roots were not cut, the soil was washed away with running water, the fresh plant body weights were measured, and a plant stress level and an extent of imparting plant stress tolerance were calculated according to Formula (ii) and (iii) above using the average of the weights.
substance,measurement,setting,value
"Sucrose fatty acid ester (C18, HLB = 5) [Product of present invention 17]",Standard extent of imparting plant salt stress tolerance,[1],113%
same,Extent of imparting plant stress tolerance,[2],111%
same,Extent of imparting plant stress tolerance,[3],112%
same,Extent of imparting plant stress tolerance,[4],113%
same,Extent of imparting plant stress tolerance,[5],114%
